Holding throughout (format): cell-based, Saccharomyces cerevisiae
Assay [1] has as its system S. cerevisiae JAY 270. The assay can be described thus: Screening of growth in 24-well plates on YPDA. The note with it: for Cell growth score (colony size): YPDA, 30° C., 24 h; for Effect on cell growth in the plate assay (words): tested concentrations, 24-well plates. The procedure:
Procedure: An inoculum culture of S. cerevisiae JAY 270 was grown in 100 mL of yeast extract-peptone-dextrose (YPD) medium (10 g/L yeast extract, 20 g/L peptone, 20 g/L glucose) in 200-mL serum bottles overnight in a shaker at 30° C. and 200 rpm. The cells were collected by centrifuging 10 min at 4000×g and 4° C. To wash off the medium residue, the cell pellet was resuspended in 30 mL of sterile 0.8% (w/v) NaCl solution and centrifuged at 4000×g for 10 min. The cell pellet was washed twice. Finally, the cell pellet was resuspended and diluted in 0.8% (w/v) NaCl to achieve cell concentrations of OD600=0.02 and 0.2.
The eight compounds were added in YPDA separately at 0.03%, 0.05%, 0.1%, and 0.2% (w/v). The standard control treatment contained only YPDA medium without addition of these compounds. Since the TrpOH and TyrOH stock solutions were dissolved in DMSO, the controls for those tests were YPDA with the same concentration of DMSO. A 3-mL aliquot of YPDA medium with or without the test compounds were loaded in each well of the 24-well plate.
Ten μL of the prepared S. cerevisiae JAY 270 cell suspension at OD600=0.02 or 0.2 was loaded onto the YPDA medium in each well of the 24-well plates. Then the plates were sealed with Parafilm and incubated at 30° C. for 24 h. There were four biological replicates for each treatment.
Yeast cell growth was evaluated by visual observation of the colony size in the well and scored as 0, +, ++, and +++.

The test system of assay [2] is S. cerevisiae JAY 270. The assay is described as follows: Growth test in liquid YNB medium, low/high nitrogen, serum bottles. The note with it: 40, 200, 1000 mg/L; low and high nitrogen media. The procedure:
A second set of tests was performed in a defined liquid medium, Yeast Nitrogen Base with Glucose (YNB), containing (NH4)2SO4 at either low (1 mM) or high (10 mM) nitrogen content. […] All serum bottles were incubated in a shaker at 30° C. and 150 RPM. Each treatment was performed in biological duplicate. Samples were collected at 0, 5, and 10 hours.

Assay [3] concerns S. cerevisiae JAY 270. The assay can be described thus: Serum-bottle cultivation in YPD: biomass, glycerol, ethanol yields. The note with it: YPD, serum bottles. The procedure: Procedure: Cultivations in serum bottles were used to determine the effect of the best-performing screened chemicals on the ethanol yield. S. cerevisiae JAY 270 was pre-cultured in 100 mL of YPD medium in 200-mL serum bottles overnight in a shaker at 30° C. and 200 rpm. The precultured yeast cells were collected and washed twice as described above. The cell pellet was resuspended in about 10 mL of 0.8% (w/v) NaCl and the cell concentration was estimated as OD600. TyrOH, PheOH, and TrpOH were added to 30 mL of YPD medium in 100-mL serum bottles at 0.05% and 0.2% respectively. The same amount of DMSO was added to YPD medium to serve as the control for TrpOH and TyrOH treatments. The bottles were inoculated with the prepared yeast cells to obtain an initial cell concentration of OD600=0.2. The serum bottles were sealed and cultured in a shaker at 30° C. and 200 rpm for 24 h. Each condition had three biological replicates.
Analytical methods: Cell growth was evaluated by monitoring OD600 and cell dry mass concentration. For dry mass measurements, 1.0 mL of culture was transferred to a pre-dried and pre-weighed 2-mL centrifuge tube. The tubes were centrifuged for 10 min at 14000 rpm using a microcentrifuge, and then the cell pellets were dried in an oven for 3 days at 65° C. The cell dry mass was determined by subtracting the initial tube mass from the dried mass of tube with cells. The concentrations of glucose, ethanol, and glycerol were measured via HPLC (Shimadzu LC20A series) outfitted with a refractive index detector and using an Aminex HPX-87H (300×7.8 mm) organic acid column and Cation H+ guard cartridge (Bio Rad Laboratories, Hercules, CA). The column was maintained at 65° C. and the mobile phase was 5 mM sulfuric acid with a flow rate of 0.6 mL/min. Standard compound solutions were used to calibrate the HPLC. Each sample was analyzed three times by HPLC.

Each structure is given as a SMILES string. “Also recorded” adds a separate entry of the source. Marks after values point to notes of the source that are not given here.

Take `Nc1nc[nH]n1` [3-amino-1,2,4-triazole]: the “Cell growth score (colony size)” value in the assay with S. cerevisiae JAY 270 [1] (0.03% (w/v)), in the assay with S. cerevisiae JAY 270 [1] (0.05% (w/v)), in the assay on S. cerevisiae JAY 270 [1] (0.10% (w/v)) and in the assay on S. cerevisiae JAY 270 [1] (0.20% (w/v)) was “+++” throughout. Further, in the assay with S. cerevisiae JAY 270 [1], the “Effect on cell growth in the plate assay (words)” value (shortened to “Effect on cell growth”) is listed as “did not inhibit cell growth”.

For `OB(O)O` [Boric acid, reference compound], in the assay on S. cerevisiae JAY 270 [2], the “Inhibitory effect on yeast cell growth in liquid YNB medium” value was “little or no growth inhibition effects”. In addition, the “Cell growth score (colony size)” value in the assay with S. cerevisiae JAY 270 [1] (0.03% (w/v)) is given as “+++”. The “Cell growth score (colony size)” value in the assay with S. cerevisiae JAY 270 [1] (0.05% (w/v)) is listed as “+++”. Besides, the “Cell growth score (colony size)” value in the assay on S. cerevisiae JAY 270 [1] (0.10% (w/v)) was “++”. For the same compound, the “Cell growth score (colony size)” value in the assay on S. cerevisiae JAY 270 [1] (0.20% (w/v)) is “+”. In the assay on S. cerevisiae JAY 270 [1], the “Effect on cell growth” value is on record as “inhibited growth; also recorded: reduced the growth”. For the same compound, in the assay on S. cerevisiae JAY 270 [3] (0.05% (w/v)), the Biomass Yield is listed as 0.137 + 0.001 g/g, the “Biomass yield % change vs. control” value was 0%, the EtOH yield is listed as 0.41 ± 0.00 g/g and the “EtOH yield % change vs. control” value is 0%. In the assay on S. cerevisiae JAY 270 [3] (0.05% (w/v)), the Glycerol yield came out at 0.024 ± 0.001 g/g and the “Glycerol yield % change vs. control” value stood at 0%. Moreover, in the assay on S. cerevisiae JAY 270 [3] (0.05%), the “Biomass yield vs. reference” value worked out at 0%, the Ethanol yield is recorded as 0.41 ± 0.00 g/g, the “Ethanol yield vs. reference” value is recorded as 0% and the Glycerol yield is listed as 0.024 ± 0.001 g/g. Besides, in the assay with S. cerevisiae JAY 270 [3] (0.05%), the “Glycerol yield vs. reference” value was −6.3% and the OD600 came out at 4.78. For the same compound, the “Effect on ethanol yield” value with S. cerevisiae JAY 270 [3] (0.05 and 0.2%) is on record as “did not affect ethanol yield”. In the assay with S. cerevisiae JAY 270 [3] (0.2% (w/v)), the Biomass Yield was 0.116 + 0.001 g/g, the “Biomass yield % change vs. control” value is given as −15* %, the EtOH yield is 0.41 ± 0.00 g/g and the “EtOH yield % change vs. control” value worked out at 0%. Also, in the assay with S. cerevisiae JAY 270 [3] (0.2% (w/v)), the Glycerol yield worked out at 0.027 ± 0.001 g/g and the “Glycerol yield % change vs. control” value amounted to 6.9%. Also, in the assay with S. cerevisiae JAY 270 [3] (0.2%), the “Biomass yield vs. reference” value was −15.3%, the Ethanol yield was determined as 0.41 ± 0.00 g/g, the “Ethanol yield vs. reference” value was found to be 0% and the Glycerol yield is on record as 0.027 ± 0.000 g/g. For the same compound, in the assay on S. cerevisiae JAY 270 [3] (0.2%), the “Glycerol yield vs. reference” value is 6.9% and the OD600 turned out to be 3.96.

As for `C[C@@H]1C[C@@H]([C@H](O)CC2CC(=O)NC(=O)C2)C(=O)[C@@H](C)C1` [Cycloheximide, cycloheximide, reference compound], the “Cell growth score (colony size)” value in the assay on S. cerevisiae JAY 270 [1] (0.03% (w/v)) was determined as 0. In the assay on S. cerevisiae JAY 270 [1] (0.05% (w/v)), the “Cell growth score (colony size)” value is on record as 0. Moreover, the “Cell growth score (colony size)” value in the assay with S. cerevisiae JAY 270 [1] (0.10% (w/v)) is reported as 0. In addition, the “Cell growth score (colony size)” value with S. cerevisiae JAY 270 [1] (0.20% (w/v)) is reported as 0. Besides, the “Effect on cell growth” value in the assay on S. cerevisiae JAY 270 [1] is recorded as “inhibited all cell growth at all tested concentrations”. Besides, in the assay with S. cerevisiae JAY 270 [1] (listed as cycloheximide), the “Effect on cell growth” value is given as “inhibited growth; also recorded: reduced the growth”. Also, in the assay with S. cerevisiae JAY 270 [3] (0.1 mg/L), the “Biomass yield % change vs. control” value was −12* %, the “Biomass yield vs. reference” value was −36.1%, the “Effect on ethanol yield” value is listed as “slight decrease of ethanol yield” and the EtOH yield came out at 0.42 ± 0.01 g/g. In addition, in the assay with S. cerevisiae JAY 270 [3] (0.1 mg/L), the “EtOH yield % change vs. control” value is recorded as −3.5%, the Ethanol yield is 0.42 ± 0.01 g/g, the “Ethanol yield vs. reference” value is 0% and the “Glycerol yield % change vs. control” value is recorded as −48* %. In the assay on S. cerevisiae JAY 270 [3] (0.1 mg/L), the “Glycerol yield vs. reference” value was 0.4% and the OD600 came out at 2.82. In the assay with S. cerevisiae JAY 270 [3] (0.4 mg/L), this compound returned an OD600 of 0.22.

In the case of `CC(C)=CCCC(C)=CCCC(C)=CCO` [Farnesol, farnesol], the “Cell growth score (colony size)” value in the assay with S. cerevisiae JAY 270 [1] (0.03% (w/v)), in the assay with S. cerevisiae JAY 270 [1] (0.05% (w/v)), in the assay with S. cerevisiae JAY 270 [1] (0.10% (w/v)) and in the assay on S. cerevisiae JAY 270 [1] (0.20% (w/v)) was “+++” each time. Further, in the assay with S. cerevisiae JAY 270 [1], the “Effect on cell growth” value was “did not inhibit cell growth”.

On to `CP(=O)(O)CCC(N)C(=O)O` (stereo not drawn) [Glufosinate ammonium, glufosinate ammonium], for which the “Cell growth score (colony size)” value with S. cerevisiae JAY 270 [1] (0.03% (w/v)), in the assay with S. cerevisiae JAY 270 [1] (0.05% (w/v)), with S. cerevisiae JAY 270 [1] (0.10% (w/v)) and with S. cerevisiae JAY 270 [1] (0.20% (w/v)) was “+++” each time. For the same compound, in the assay on S. cerevisiae JAY 270 [1], the “Effect on cell growth” value is recorded as “did not inhibit cell growth”.

Values taken from patent US11827917B1, “Methods for the conversion of fermentable sugars to ethanol” (Colorado State University Research Foundation, priority 2020, dated 2023).
